Measurements: paper PMC337094 (BMC Biochemistry, 2003)

Tests used:
[1] = biological target: lumazine protein of P. leiognathi (Photobacterium leiognathi, UniProt Q06877); assay: […] NMR protein perturbation; format: binding; details: 20 mM phosphate pH 7.0, 100 mM KCl, 10% D2O, 11 °C
[2] = biological target: T1, riboflavin synthase of E. coli (Escherichia coli, UniProt P0AFU8); assay: […] NMR protein perturbation; format: binding; details: 20 mM phosphate pH 7.0, 100 mM KCl, 10% D2O, 11 °C
T1 sequence (P0AFU8 1-213): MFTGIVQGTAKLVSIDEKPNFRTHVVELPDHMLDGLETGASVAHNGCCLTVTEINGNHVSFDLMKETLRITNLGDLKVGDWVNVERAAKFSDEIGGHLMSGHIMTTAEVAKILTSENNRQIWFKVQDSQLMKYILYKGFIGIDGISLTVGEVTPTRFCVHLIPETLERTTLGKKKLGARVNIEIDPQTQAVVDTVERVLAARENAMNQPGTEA

[3] = biological target: T2, recombinant N-terminal domain of E. coli riboflavin synthase (Escherichia coli, UniProt P0AFU8); assay: […] NMR protein perturbation; format: binding; details: 20 mM phosphate pH 7.0, 100 mM KCl, 10% D2O, 11 °C
T2 sequence (P0AFU8 1-97): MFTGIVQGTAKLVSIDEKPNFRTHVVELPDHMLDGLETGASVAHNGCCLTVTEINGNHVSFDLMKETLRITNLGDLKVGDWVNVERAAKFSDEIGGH

[4] = biological target: T3, riboflavin synthase of S. pombe (SSP-Rosy) (Schizosaccharomyces pombe, UniProt Q9Y7P0); assay: […] NMR protein perturbation; format: binding; details: 20 mM phosphate pH 7.0, 100 mM KCl, 10% D2O, 11 °C
T3 sequence (Q9Y7P0 1-208): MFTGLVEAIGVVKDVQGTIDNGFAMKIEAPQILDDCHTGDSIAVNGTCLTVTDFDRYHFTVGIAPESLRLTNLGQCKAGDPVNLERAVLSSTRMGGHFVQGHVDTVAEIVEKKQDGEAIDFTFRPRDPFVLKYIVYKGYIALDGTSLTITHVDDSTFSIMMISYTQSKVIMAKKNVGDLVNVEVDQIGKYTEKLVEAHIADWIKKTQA

[5] = biological target: T4, riboflavin synthase of B. subtilis (Bacillus subtilis, UniProt P16440); assay: […] NMR protein perturbation; format: binding; details: 20 mM phosphate pH 7.0, 100 mM KCl, 10% D2O, 11 °C
T4 sequence (P16440 1-215): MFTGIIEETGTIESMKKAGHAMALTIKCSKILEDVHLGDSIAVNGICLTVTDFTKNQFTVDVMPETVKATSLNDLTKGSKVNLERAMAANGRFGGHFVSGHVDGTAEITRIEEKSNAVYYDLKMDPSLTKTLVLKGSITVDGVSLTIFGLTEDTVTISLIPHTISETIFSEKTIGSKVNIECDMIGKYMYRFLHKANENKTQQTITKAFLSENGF

[6] = biological target: T3, riboflavin synthase of S. pombe (SSP-Rosy); assay: […] NMR displacement of compound 6a; format: binding; details: 20 mM phosphate pH 7.0, 100 mM KCl, 10% D2O, 11 °C; data not shown
[7] = biological target: the molecule itself; assay: AUC

Sequence of lumazine protein of P. leiognathi (Q06877 whole entry): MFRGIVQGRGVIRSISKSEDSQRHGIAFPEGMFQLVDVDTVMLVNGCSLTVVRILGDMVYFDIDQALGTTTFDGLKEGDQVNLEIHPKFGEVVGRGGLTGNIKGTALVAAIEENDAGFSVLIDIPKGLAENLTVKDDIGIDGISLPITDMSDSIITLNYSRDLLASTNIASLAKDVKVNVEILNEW

Row | Molecule | 19F NMR bound-ligand signal [1] | 19F NMR bound-ligand signal [2] | 19F NMR bound-ligand signal [3] | 19F NMR bound-ligand signal [4] | 19F NMR bound-ligand signal [5] | 19F NMR displacement of compound 6a [6] | stoichiometry N [7]
1 | O=c1[nH]c2c(c(=O)[nH]1)N=C(C(F)(F)F)[C@@](O)(C(F)(F)F)N2C[C@H](O)[C@H](O)[C@H](O)CO (single isomer, unassigned; epimer a) [6a, 6,7-bis(trifluoromethyl)-8-ribityllumazine hydrate (epimer A)] | show single lines for each trifluoromethyl group of bound Compound 6a | the riboflavin synthases (Figs. 6C,6D,6E) studied show multiple signals | show single lines for each trifluoromethyl group of bound Compound 6a | riboflavin synthase of S. pombe binds epimer A | the riboflavin synthases (Figs. 6C,6D,6E) studied show multiple signals |  | 
2 | Cc1cc2nc3c(=O)[nH]c(=O)nc-3n(C[C@H](O)[C@H](O)[C@H](O)CO)c2cc1C [compound 4, riboflavin] |  |  |  |  |  | could be displaced from S. pombe protein by addition of riboflavin | 
3 | O=c1[nH]c(=O)c2nc(C(F)(F)F)c(=O)n(C[C@H](O)[C@H](O)[C@H](O)CO)c2[nH]1 [compound 7, 6-trifluoromethyl-7-oxo-8-ribityllumazine] | lumazine protein (Fig. 5A) | The riboflavin synthases of E. coli (Fig. 5C) | show single and much narrower lines for the protein bound ligand | in complex with riboflavin synthase of S. pombe shows four signals | B. subtilis (Fig. 5D) show similar signal multiplicities |  | 
4 | Riboflavin synthase of Schizosaccharomyces pombe (enzyme, UniProt Q9Y7P0 1-208, looked up) MFTGLVEAIGVVKDVQGTIDNGFAMKIEAPQILDDCHTGDSIAVNGTCLTVTDFDRYHFTVGIAPESLRLTNLGQCKAGDPVNLERAVLSSTRMGGHFVQGHVDTVAEIVEKKQDGEAIDFTFRPRDPFVLKYIVYKGYIALDGTSLTITHVDDSTFSIMMISYTQSKVIMAKKNVGDLVNVEVDQIGKYTEKLVEAHIADWIKKTQA |  |  |  |  |  |  | 3
